Laboratory results taken from the NIST ThermoML archive (doi:10.1021/je100832h).

Legend:
[1] = xn = mol fraction of the nth substance listed; conditions: 101.32 kPa, Liquid, Vibrating tube method
[2] = excess molar enthalpy (molar enthalpy of mixing); xn = mol fraction of the nth substance listed; conditions: 291.15 K, 101 kPa, Liquid, Calvet calorimetry
[3] = Liquid; for mass density: 101.32 kPa, Vibrating tube method; for vapor or sublimation pressure: Ebulliometric method (Recirculating still)

CCCCCCC [heptane] + CCOC(C)=O
[1], x2 = 0
Conditions | mass density [kg/m3]
291.15 K | 685.28
298.15 K | 679.48
318.15 K | 662.06
328.15 K | 653.6

CCOC(C)=O [ethyl acetate] + CCCCCCCC
[1], x1 = 1
Conditions | mass density [kg/m3]
291.15 K | 902.88
298.15 K | 894.4
318.15 K | 869.6
328.15 K | 857.17

CCOC(C)=O [ethyl acetate] + CCCCCCCCC
[1], x1 = 1
Conditions | mass density [kg/m3]
291.15 K | 902.88
298.15 K | 894.4
318.15 K | 869.6
328.15 K | 857.17

CCOC(C)=O [ethyl acetate] + CCCCCCCCCC
[1], x1 = 1
Conditions | mass density [kg/m3]
291.15 K | 902.88
298.15 K | 894.4
318.15 K | 869.6
328.15 K | 857.17

CCCCC [pentane] + CCOC(C)=O
mass density [kg/m3], [1]
Conditions | 291.15 K | 298.15 K
x2 = 0 | 628.22 | 621.35
x2 = 0.0126 | 630.77 | –
x2 = 0.026 | – | 626.34
x2 = 0.0577 | 640.44 | –
x2 = 0.0607 | – | 633.6
x2 = 0.0897 | – | 639.94
x2 = 0.0922 | 648.09 | –
x2 = 0.1609 | – | 655.94
x2 = 0.1813 | 668.69 | –
x2 = 0.2315 | – | 672.51
x2 = 0.2507 | 685.25 | –
x2 = 0.3028 | – | 690.12
x2 = 0.3232 | 703.25 | –
x2 = 0.3576 | – | 703.99
x2 = 0.3916 | 721.01 | –
x2 = 0.4301 | – | 722.92
x2 = 0.4566 | 738.23 | –
x2 = 0.4703 | – | 733.71
x2 = 0.5276 | – | 749.44
x2 = 0.5296 | 758.09 | –
x2 = 0.5916 | 775.48 | –
x2 = 0.6517 | 792.81 | –
x2 = 0.6553 | – | 785.76
x2 = 0.7126 | – | 802.69
x2 = 0.7164 | 812.13 | –
x2 = 0.7725 | – | 820.79
x2 = 0.7788 | 831.21 | –
x2 = 0.8245 | – | 836.93
x2 = 0.8582 | 856.32 | –
x2 = 0.8825 | – | 855.3
x2 = 0.8961 | 868.57 | –
x2 = 0.9342 | – | 872.31
x2 = 0.9693 | 892.55 | –
x2 = 0.9896 | – | 890.79

[2]
Conditions | excess molar enthalpy [kcal/mol]
x2 = 0.0628 | 0.0777
x2 = 0.1353 | 0.139
x2 = 0.2024 | 0.194
x2 = 0.2623 | 0.232
x2 = 0.3345 | 0.274
x2 = 0.4047 | 0.295
x2 = 0.4549 | 0.305
x2 = 0.514 | 0.307
x2 = 0.5664 | 0.3
x2 = 0.6434 | 0.283
x2 = 0.7049 | 0.256
x2 = 0.7712 | 0.221
x2 = 0.8427 | 0.175
x2 = 0.9116 | 0.118
x2 = 0.9483 | 0.065

CCCCCC [hexane] + CCOC(C)=O
[1], x2 = 0
Conditions | mass density [kg/m3]
291.15 K | 661.17
298.15 K | 654.9
318.15 K | 636.5
328.15 K | 627

CCCCCCCCC [nonane]
[3]
Conditions | mass density [kg/m3] | vapor or sublimation pressure [kPa]
291.15 K | 719.2 | –
298.15 K | 713.85 | –
318.15 K | 698.09 | –
328.15 K | 690.4 | –
365.3 K | – | 15.58
369.25 K | – | 18.07
372.81 K | – | 20.58
376.46 K | – | 23.49
379.71 K | – | 26.35
382.25 K | – | 28.78
384.65 K | – | 31.22
387.02 K | – | 33.8
389.45 K | – | 36.62
391.8 K | – | 39.52
393.48 K | – | 41.74
395.26 K | – | 44.15
396.96 K | – | 46.56
398.71 K | – | 49.15
400.61 K | – | 52.12
402.01 K | – | 54.42
403.31 K | – | 56.55
404.73 K | – | 59.01
406.27 K | – | 61.77
407.78 K | – | 64.58
408.93 K | – | 66.76
410.11 K | – | 69.09
411.32 K | – | 71.53
412.52 K | – | 74.01
413.68 K | – | 76.48
414.83 K | – | 79.03
415.9 K | – | 81.41
417.22 K | – | 84.44
418.24 K | – | 86.85
419.28 K | – | 89.41
420.5 K | – | 92.43
421.62 K | – | 95.25
422.83 K | – | 98.4
423.2 K | – | 99.35
423.61 K | – | 100.44
423.94 K | – | 101.32
424.92 K | – | 104
425.83 K | – | 106.5
426.71 K | – | 108.99
427.6 K | – | 111.54
428.4 K | – | 113.88
429.26 K | – | 116.44
430.22 K | – | 119.35
431.09 K | – | 122.04
432.04 K | – | 124.99
432.94 K | – | 127.82
433.74 K | – | 130.52
434.68 K | – | 133.6
435.58 K | – | 136.62
436.31 K | – | 139.12
437.11 K | – | 141.9
437.95 K | – | 144.81
438.67 K | – | 147.42
439.45 K | – | 150.23
440.11 K | – | 152.67
440.76 K | – | 155.08
441.41 K | – | 157.53
442.05 K | – | 159.98
442.77 K | – | 162.8
443.49 K | – | 165.61
444.23 K | – | 168.53
444.93 K | – | 171.39
445.49 K | – | 173.63
446.19 K | – | 176.52
446.75 K | – | 178.85
447.44 K | – | 181.82
448.07 K | – | 184.55
448.61 K | – | 186.86
449.27 K | – | 189.75
449.81 K | – | 192
450.56 K | – | 195.54
